This passage reports ring closure, isolated yield and Ki results from patent US8828983B2, “Macrocycles as factor XIa inhibitors” (Bristol-Myers Squibb Company, priority 2010, dated 2014).

Some results are limits rather than exact numbers.

Chain of purified human Factor XIa (P03951 388-625): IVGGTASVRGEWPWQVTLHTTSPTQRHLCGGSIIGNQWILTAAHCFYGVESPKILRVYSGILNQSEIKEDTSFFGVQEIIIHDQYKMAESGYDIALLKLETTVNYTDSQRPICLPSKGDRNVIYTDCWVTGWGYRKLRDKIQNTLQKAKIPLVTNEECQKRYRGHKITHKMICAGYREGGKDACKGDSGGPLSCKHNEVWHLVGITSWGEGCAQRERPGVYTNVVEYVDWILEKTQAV
Chain of purified human Factor XIa (P03951 19-387 partner): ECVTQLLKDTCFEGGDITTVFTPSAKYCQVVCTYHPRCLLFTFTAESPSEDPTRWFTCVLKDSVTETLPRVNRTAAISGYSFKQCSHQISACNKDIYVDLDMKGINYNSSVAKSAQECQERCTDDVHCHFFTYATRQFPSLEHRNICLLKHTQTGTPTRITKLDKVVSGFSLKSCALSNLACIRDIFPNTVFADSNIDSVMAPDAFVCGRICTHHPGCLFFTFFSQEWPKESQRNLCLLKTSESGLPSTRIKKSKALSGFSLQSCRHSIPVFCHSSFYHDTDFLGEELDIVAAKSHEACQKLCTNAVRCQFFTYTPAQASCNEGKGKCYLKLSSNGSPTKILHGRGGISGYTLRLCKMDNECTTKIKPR

System in one data set: not given
Test: not given
To be noted: from C=CCCCc1ccccc1-c1cn(COCC[Si](C)(C)C)c([C@H](CC=C)NC(=O)OC(C)(C)C)n1; rcm bond; 12-membered ring; Grubbs II (0.4 eq)/pTsOH.H2O; DCM; 0.97 mM; 40.0 °C.
Take `CC(C)(C)OC(=O)N[C@H]1CC=CCCCc2ccccc2-c2cn(COCC[Si](C)(C)C)c1n2`: the ring closure, isolated yield turned out to be 45.3%.

The data set is the same for the next values; noted with them: from COC(=O)Nc1ccc(-c2cnc(C(Cc3ccc(F)c(CCC(=O)O)n3)NC(=O)OC(C)(C)C)o2)c(N)c1; amide bond; 14-membered ring; BOP/DMAP/DIEA; DCM/DMF; 1.1 mM; 25.0 °C; 16.0 h.
The compound `COC(=O)Nc1ccc2c(c1)NC(=O)CCc1nc(ccc1F)CC(NC(=O)OC(C)(C)C)C1=NC=C2O1` (centres unmarked) registered a ring closure, isolated yield of 23%.

The next data set has as its target purified human Factor XIa (Homo sapiens (Human), UniProt P03951). The data set can be described thus: Factor XIa assay (chromogenic substrate S-2366 hydrolysis, Ki). The data set is classed as biochemical. The settings on record: substrate S-2366, pH 7.4. As for the experimental part: The effectiveness of compounds of the present invention as inhibitors of the coagulation Factors XIa, VIIa, IXa, Xa, XIIa, plasma kallikrein or thrombin, can be determined using a relevant purified serine protease, respectively, and an appropriate synthetic substrate. The rate of hydrolysis of the chromogenic or fluorogenic substrate by the relevant serine protease was measured both in the absence and presence of compounds of the present invention. […] A decrease in the rate of absorbance or fluorescence change in the presence of inhibitor is indicative of enzyme inhibition. Such methods are known to one skilled in the art. The results of this assay are expressed as the inhibitory constant, Ki.
Factor XIa determinations were made in 50 mM HEPES buffer at pH 7.4 containing 145 mM NaCl, 5 mM KCl, and 0.1% PEG 8000 (polyethylene glycol; JT Baker or Fisher Scientific). Determinations were made using purified human Factor XIa at a final concentration of 25-200 pM (Haematologic Technologies) and the synthetic substrate S-2366 (pyroGlu-Pro-Arg-pNA; CHROMOGENIX® or AnaSpec) at a concentration of 0.0002-0.001 M.
Values of Ki were determined by allowing the protease to react with the substrate in the presence of the inhibitor. Reactions were allowed to go for periods of 20-180 minutes (depending on the protease) and the velocities (rate of absorbance or fluorescence change versus time) were measured. The following relationships were used to calculate Ki values: (vo−vs)/vs=I/(Ki(1+S/Km)) for a competitive inhibitor with one binding site; or vs/vo=A+((B−A)/1+((IC50/(I)0))); and Ki=IC50/(1+S/Km) for a competitive inhibitor where: […]
Take `COC(=O)Nc1ccc2c(c1)NC(=O)CCCC[C@H](NC(=O)/C=C/c1cc(Cl)ccc1-n1cnnn1)c1nc-2c[nH]1` [Example 10, {(S)-14-[(E)-3-(5-Chloro-2-tetrazol-1-yl-phenyl)-acryloylamino]-9-oxo-8,16,18-triaza-tricyclo[13.2.1.0^2,7]octadeca-1(17),2,4,6,15(18)-pentaen-5-yl}-carbamic acid methyl ester]: the inhibition constant (Ki) is below 0.005 µM.
In the case of `COC(=O)Nc1ccc2c(c1)CCCCc1ccc(cc1)C[C@H](NC(=O)/C=C/c1cc(Cl)ccc1-n1cnnn1)c1nc-2c[nH]1` [Example 111], the Ki came to 0.071 µM.
On the same count and under the same terms, then `COC(=O)Nc1ccc2c(c1)NC(=O)CCc1nc(ccc1F)CC(NC(=O)/C=C/c1cc(Cl)ccc1-n1cnnn1)c1nc-2cn1C` (centres unmarked) [III-33], with 0.103 µM; and `COC(=O)Nc1ccc2c(c1)NC(=O)CCc1nc(ccc1F)CC(NC(=O)c1c(F)cc(C)cc1F)c1nc-2c[nH]1` (centres unmarked) [Example 142, Methyl N-{3-[(2,6-difluoro-4-methylbenzene)amido]-19-fluoro-15-oxo-5,14,22,23-tetraazatetracyclo[16.3.1.1^4,7.0^8,13]tricosa-1(22),4(23),6,8,10,12,18,20-octaen-11-yl}carbamate], with 0.145 µM; and `COC(=O)Nc1ccc2c(c1)NC(=O)CCc1nc(ccc1F)CC(NC(=O)/C=C/c1cc(Cl)ccc1C(C)=O)c1nc-2c[nH]1` (centres unmarked) [Example 140, Methyl N-{3-[(2E)-3-(2-acetyl-5-chlorophenyl)prop-2-enamido]-19-fluoro-15-oxo-5,14,22,23-tetraazatetracyclo[16.3.1.1^4,7.0^8,13]tricosa-1(22),4(23),6,8,10,12,18,20-octaen-11-yl}carbamate], with below 0.005 µM.
Same read-out and setting: then `COC(=O)Nc1ccc2c(c1)CCCCc1cccc(c1)C[C@H](NC(=O)/C=C/c1cc(Cl)ccc1-n1cnnn1)c1nc-2c(Cl)[nH]1` [Example 102], with 0.00816 µM.
Same read-out and setting: then `O=C(/C=C/c1cc(Cl)ccc1-n1cnnn1)N[C@H]1C/C=C/CCOc2ccccc2-c2c[nH]c1n2` [Example 1, (E)-3-(5-Chloro-2-tetrazol-1-yl-phenyl)-N-(E)-(S)-8-oxa-16,18-diaza-tricyclo[13.2.1.0^2,7]octadeca-1(17),2,4,6,11,15(18)-hexaen-14-yl-acrylamide], with 2.98 µM; and `COC(=O)Nc1ccc2c(c1)NC[C@@H]1CCN(C1)C(=O)C[C@H](NC(=O)/C=C/c1cc(Cl)ccc1-n1cnnn1)c1nc-2c[nH]1` [Example 86], with 2.39 µM.
`COC(=O)Nc1ccc2c(c1)NC(=O)CCc1nc(ccc1F)CC(NC(=O)[C@H]1CC[C@H](C)CC1)c1nc-2c[nH]1` (some centres unmarked) [Example 143, Methyl N-{19-fluoro-3-[(4-methylcyclohexane)amido]-15-oxo-5,14,22,23-tetraazatetracyclo[16.3.1.1^4,7.0^8,13]tricosa-1(22),4(23),6,8,10,12,18,20-octaen-11-yl}carbamate] gave a Ki of 1.31 µM.
